Experimental data: patent US20240398832A1, “CDK4 AND 6 INHIBITOR IN COMBINATION WITH FULVESTRANT FOR THE TREATMENT OF HORMONE RECEPTOR-POSITIVE, HUMAN EPIDERMAL GROWTH FACTOR RECEPTOR 2-NEGATIVE ADVANCED OR METASTATIC BREAST CANCER IN PATIENTS PREVIOUSLY TREATED WITH A CDK4 AND 6 INHIBITOR” (Eli Lilly and Company, priority 2021, published 2024)

Tests used:
[1] = system: early breast cancer at high risk of recurrence; details: adjuvant setting; patients with early breast cancer at high risk of recurrence; cited from earlier work
[2] = system: Cancer cell lines that are resistant to palbociclib and tamoxifen; test: Colony formation assay, sequential CDK4 and 6 inhibitor treatment; type: cell-based; details: sequential treatment in combination with ET (fulvestrant or tamoxifen)
Procedure: (§1) Resistant breast cancer cells are prepared by treating breast cancer cell lines with amounts of a CDK4 and 6 inhibitor (either abemaciclib or palbociclib) in combination with 4-OH-tamoxifen (tamoxifen) for 120-144 h. The cells are sorted and screened for resistant cells, defined as geminin positive (GEM+), a marker of S/G2/M cell cycle accumulation. To confirm the resistant phenotype, cell lines are treated with tamoxifen plus the CDK4 and 6 inhibitor used to drive resistance (either abemaciclib or palbociclib). Resistant cancer cells generated by the above method are treated with abemaciclib in combination with an endocrine therapy (ET) comprising either fulvestrant or tamoxifen; or with palbociclib in combination with either fulvestrant or tamoxifen. Cell proliferation and viability are evaluated by Geminin/Ki67, annexin V, and colony formation assays. Mechanisms of resistance and the effects of sequential treatment of the CDK4 and 6 inhibitor in combination with either fulvestrant or tamoxifen are characterized by western blot and RNAseq analysis.

[3] = system: Cancer cell lines that are resistant to palbociclib and tamoxifen; test: Characterization of effects of sequential treatment (proliferation, pRb signaling, androgen response); type: cell-based; details: sequential treatment in combination with ET
Procedure: as §1

[4] = system: Cancer cell lines that are resistant to palbociclib and tamoxifen; test: Annexin V assay, sequential CDK4 and 6 inhibitor treatment; type: cell-based; details: sequential treatment in combination with ET (fulvestrant or tamoxifen)
Procedure: as §1

[5] = system: Cancer cell lines that are resistant to palbociclib and tamoxifen; test: Geminin/Ki67 cell proliferation assay, sequential CDK4 and 6 inhibitor treatment; type: cell-based; details: sequential treatment in combination with ET (fulvestrant or tamoxifen)
Procedure: as §1

[6] = system: HR+, HER2− advanced or metastatic breast cancer; details: abemaciclib 150 mg BID in combination with fulvestrant; patients; cited from earlier work
[7] = system: HR+, HER2− advanced or metastatic breast cancer; type: in vivo, human; details: investigation arm: abemaciclib 150 mg PO BID and fulvestrant 500 mg IM; expected
Procedure: As detailed below, a clinical trial is conducted as a Phase 3, global, multicenter, randomized, double-blind, placebo-controlled study in participants with HR+, HER2− advanced or metastatic breast cancer. The study will enroll adults who experienced disease progression on a CDK4 and 6 inhibitor and an aromatase inhibitor (AI) therapy in the first-line setting (initial therapy for advanced or metastatic breast cancer), or recurrence on or after a CDK4 and 6 inhibitor with endocrine therapy (ET) in the adjuvant setting.
The trial will include approximately 350 participants that will be randomly assigned to one of two intervention arms that include an investigational arm A: abemaciclib and fulvestrant and a control arm B: placebo and fulvestrant. […]
The primary endpoint, PFS by investigator assessment, is defined as the time from randomization until the first occurrence of documented disease progression as determined by investigator assessment per RECIST 1.1, or death from any cause in the absence of documented progressive disease. […]

[8] = system: palbociclib-resistant cells; test: Western blot analysis after sequential treatment; type: cell-based; details: in combination with ET
Procedure: as §1

[9] = system: cell lines resistant to abemaciclib and tamoxifen; test: Cell proliferation and viability assays (Geminin/Ki67, annexin V, colony formation), sequential treatment; type: cell-based; details: sequential treatment in combination with ET
Procedure: as §1

[10] = system: abemaciclib-resistant cells; test: Characterization of effects of sequential treatment (proliferation, pRb signaling, androgen response); type: cell-based; details: in combination with ET
Procedure: as §1

[11] = system: abemaciclib-resistant cells; test: Western blot analysis after sequential treatment; type: cell-based; details: in combination with ET
Procedure: as §1

Row | Structure (SMILES) | distant relapse-free survival (DRFS) [1] | invasive disease-free survival (IDFS) [1] | colony formation ability [2] | androgen response [3] | pRb signaling [3] | proliferation [3] | apoptosis [4] | % GEM+ [5] | Ki67 levels [5] | OS benefit compared to fulvestrant/placebo [6] | PFS benefit compared to fulvestrant/placebo [6] | safety profile [6] | disease progression [7] | FOXMI, a regulator of senescence and apoptosis [8] | cyclin A, a marker of mitosis [8] | inhibition effects (% GEM+, colony formation ability, Ki67 levels, apoptosis) [9] | effects on proliferation, pRb signaling, or androgen response [10] | effects on FOXMI and cyclin A [11]
1 | CCN1CCN(Cc2ccc(Nc3ncc(F)c(-c4cc(F)c5nc(C)n(C(C)C)c5c4)n3)nc2)CC1 [abemaciclib, [5-(4-ethyl-piperazin-1-ylmethyl)-pyridin-2-yl]-[5-fluoro-4-(7-fluoro-3-isopropyl-2-methyl-3H-benzoimidazol-5-yl)-pyrimidin-2-yl]-amine] | significant improvement | significant improvement | decreased | induction | decreased | decrease | increased | decreased | decreased | clinically meaningful | clinically meaningful | manageable safety profile | delay disease progression | decrease | decrease | – | – | –
2 | CC(=O)c1c(C)c2cnc(Nc3ccc(N4CCNCC4)cn3)nc2n(C2CCCC2)c1=O [palbociclib, 6-acetyl-8-cyclopentyl-5-methyl-2-{[5-(piperazin-1-yl)pyridine-2-yl]amino}pyrido[2,3,-d]pyrimidin-7 (8H)-one] | – | – | – | – | – | – | – | – | – | – | – | – | – | – | – | do not show similar inhibition effects | do not exhibit similar effects | do not exhibit similar effects
